Test: Antiglycation activity assessed as inhibition of glucose-mediated advanced glycation end product formation after 30 hrs by fluorescence spectrophotometry in presence of bovine serum albumin
Format: physicochemical

Row | IC50 | SMILES
1 | 63.9 µM | O=C(O)c1ccc(N2C(=O)[C@@H]3[C@@H](ON(c4ccccc4)[C@H]3c3ccccc3O)C2=O)cc1 (relative stereo)
2 | 127 µM | O=C(O)c1ccc(N2C(=O)[C@@H]3[C@@H](ON(c4ccccc4)[C@H]3c3ccccc3Cl)C2=O)cc1 (relative stereo)
3 | 30.9 µM | O=C1[C@@H]2[C@@H](ON(c3ccccc3)[C@H]2c2ccccc2Cl)C(=O)N1c1ccccc1 (relative stereo)
4 | 7.18 µM | Cc1ccc(N2C(=O)[C@H]3[C@@H](c4ccccc4Cl)N(c4ccccc4)O[C@H]3C2=O)cc1 (relative stereo)
5 | 23.9 µM | Cc1ccc(N2C(=O)[C@@H]3[C@@H](ON(c4ccccc4)[C@H]3c3ccccc3Cl)C2=O)cc1 (relative stereo)
6 | 8.63 µM | COc1ccc(N2C(=O)[C@H]3[C@@H](c4ccccc4Cl)N(c4ccccc4)O[C@H]3C2=O)cc1 (relative stereo)
7 | 24.2 µM | COc1ccc(N2C(=O)[C@@H]3[C@@H](ON(c4ccccc4)[C@H]3c3ccccc3Cl)C2=O)cc1 (relative stereo)
8 | 33 µM | O=C(O)c1ccc(N2C(=O)[C@H]3[C@@H](c4ccccc4Cl)N(c4ccccc4)O[C@H]3C2=O)cc1 (relative stereo)
9 | 24.4 µM | O=C(O)c1ccc(N2C(=O)[C@H]3[C@@H](c4ccccc4O)N(c4ccccc4)O[C@H]3C2=O)cc1 (relative stereo)

More lines, now with the values behind:

Row | SMILES | IC50
10 | Cc1ccc(N2C(=O)[C@@H]3[C@@H](ON(c4ccccc4)[C@H]3c3ccccc3O)C2=O)cc1 | 75 µM
11 | O=C1[C@H]2[C@@H](c3ccccc3Cl)N(c3ccccc3)O[C@H]2C(=O)N1c1ccccc1 (relative stereo) | 7.4 µM
12 | O=C1[C@H]2[C@@H](c3ccccc3O)N(c3ccccc3)O[C@H]2C(=O)N1c1ccccc1 (relative stereo) | 25.9 µM
13 | O=C1[C@@H]2[C@@H](ON(c3ccccc3)[C@H]2c2ccccc2O)C(=O)N1c1ccccc1 (relative stereo) | 64.8 µM
14 | Cc1ccc(N2C(=O)[C@H]3[C@@H](c4ccccc4O)N(c4ccccc4)O[C@H]3C2=O)cc1 (relative stereo) | 18.8 µM
15 | COc1ccc(N2C(=O)[C@H]3[C@@H](c4ccccc4O)N(c4ccccc4)O[C@H]3C2=O)cc1 (relative stereo) | 26.6 µM
16 | COc1ccc(N2C(=O)[C@@H]3[C@@H](ON(c4ccccc4)[C@H]3c3ccccc3O)C2=O)cc1 (relative stereo) | 90.1 µM
17 | N=C(N)NN [PIMAGEDINE] | 40.5 µM

Reference: ChEMBL document CHEMBL2321732, “Synthesis and evaluation of novel 2,3,5-triaryl-4H,2,3,3a,5,6,6a-hexahydropyrrolo[3,4-d]isoxazole-4,6-diones for advanced glycation end product formation inhibitory activity” (Bioorg Med Chem Lett, 2013)
